Data taken from ChEMBL document CHEMBL1144330, “Novel pyrazinone mono-amides as potent and reversible caspase-3 inhibitors” (Bioorg Med Chem Lett, 2005).

Experiments:
[1] = target: Caspase-8 (Homo sapiens, UniProt Q14790); experiment: Inhibitory concentration against recombinant human caspase-8 […]
[2] = target: T1, Caspase-3 (Homo sapiens, UniProt P42574); experiment: Inhibitory concentration against recombinant human caspase-3 in neuronal precursor (NT2) cells
T1 sequence (P42574 whole entry): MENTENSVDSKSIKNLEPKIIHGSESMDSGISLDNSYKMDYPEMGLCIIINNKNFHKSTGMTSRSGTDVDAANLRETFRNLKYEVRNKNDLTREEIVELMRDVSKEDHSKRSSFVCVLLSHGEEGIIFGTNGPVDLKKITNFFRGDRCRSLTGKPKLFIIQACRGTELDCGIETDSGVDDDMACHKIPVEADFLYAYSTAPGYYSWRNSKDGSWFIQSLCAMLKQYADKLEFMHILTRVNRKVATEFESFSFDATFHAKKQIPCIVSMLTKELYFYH

[3] = target: T2, Caspase-1 (Homo sapiens, UniProt P29466); experiment: Inhibitory concentration against recombinant human caspase-1 in neuronal precursor (NT2) cells
T2 sequence (P29466 whole entry): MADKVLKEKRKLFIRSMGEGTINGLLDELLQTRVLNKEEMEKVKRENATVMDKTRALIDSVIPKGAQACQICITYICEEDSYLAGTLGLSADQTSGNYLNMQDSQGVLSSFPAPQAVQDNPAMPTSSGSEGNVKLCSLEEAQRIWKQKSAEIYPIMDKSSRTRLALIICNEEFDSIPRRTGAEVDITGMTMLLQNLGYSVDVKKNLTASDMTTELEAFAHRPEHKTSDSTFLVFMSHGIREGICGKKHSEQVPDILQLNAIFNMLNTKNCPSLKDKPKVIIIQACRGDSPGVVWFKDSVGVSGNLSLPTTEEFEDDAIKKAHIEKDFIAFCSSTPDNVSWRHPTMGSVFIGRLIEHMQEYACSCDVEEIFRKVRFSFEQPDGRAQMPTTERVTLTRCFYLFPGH

[4] = test system: NT2; experiment: Inhibitory concentration against camptothecin induced apoptosis in neuronal precursor (NT2) whole cells; assay type: functional, cell-based; conditions: Homo sapiens
[5] = target: T3, Caspase-7 (Homo sapiens, UniProt P55210); experiment: Inhibitory concentration against recombinant human caspase-7 […]
T3 sequence (P55210 whole entry): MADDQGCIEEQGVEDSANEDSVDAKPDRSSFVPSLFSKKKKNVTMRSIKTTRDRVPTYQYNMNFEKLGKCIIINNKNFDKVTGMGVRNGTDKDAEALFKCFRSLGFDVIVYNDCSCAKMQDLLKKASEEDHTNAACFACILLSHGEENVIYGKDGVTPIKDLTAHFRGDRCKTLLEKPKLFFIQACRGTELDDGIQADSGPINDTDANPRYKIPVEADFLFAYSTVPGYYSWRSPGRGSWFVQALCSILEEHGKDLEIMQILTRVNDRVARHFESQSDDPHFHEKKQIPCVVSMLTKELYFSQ

Caspase-8, sequence (Q14790 217-374 limits assumed): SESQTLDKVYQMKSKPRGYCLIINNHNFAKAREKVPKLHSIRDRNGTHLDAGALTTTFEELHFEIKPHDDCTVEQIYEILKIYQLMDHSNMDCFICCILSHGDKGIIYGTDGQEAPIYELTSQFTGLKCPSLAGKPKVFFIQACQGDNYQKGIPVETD
Caspase-8, sequence (Q14790 385-479 limits assumed): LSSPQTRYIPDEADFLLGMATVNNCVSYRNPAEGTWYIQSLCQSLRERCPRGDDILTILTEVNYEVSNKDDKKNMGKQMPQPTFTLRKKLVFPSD

CC[C@@H](C(=O)N[C@@H](CC(=O)O)C(=O)CSCc1ccccc1)n1cccc(NC(=O)[C@H](CC(=O)O)NC(C)=O)c1=O
IC50 [1]: 220 nM | IC50 [2]: 0.3 nM | IC50 [3]: 60 nM | IC50 [4]: 5200 nM | IC50 [5]: 10 nM

CCC(C(=O)N[C@@H](CC(=O)O)C(=O)CSCc1ccccc1)n1ccnc(NCc2noc(C)n2)c1=O (stereo not given in full)
IC50 [1]: 7560 nM | IC50 [2]: 72 nM | IC50 [3]: 1080 nM | IC50 [4]: 8060 nM | IC50 [5]: > 10000 nM

CCC(C(=O)N[C@@H](CC(=O)O)C(C)=O)n1cc(C(C)(C)C)nc(NCc2nonc2C)c1=O (stereo not given in full)
IC50 [1]: 10000 nM | IC50 [2]: 64 nM | IC50 [3]: 1230 nM | IC50 [4]: 5120 nM | IC50 [5]: 480 nM

CCCCCCCCN(C)CNCC(=O)[C@H](CC(=O)O)NC(=O)C(CC)n1ccnc(NCc2nonc2C)c1=O (stereo not given in full)
IC50 [1]: > 10000 nM | IC50 [2]: 9 nM | IC50 [3]: 25 nM | IC50 [4]: 150 nM | IC50 [5]: 100 nM

CCC(C(=O)N[C@@H](CC(=O)O)C(=O)CNCN1C2CCC1CC2)n1ccnc(NCc2nonc2C)c1=O (stereo not given in full)
IC50 [1]: 9220 nM | IC50 [2]: 23 nM | IC50 [3]: 880 nM | IC50 [4]: 1450 nM | IC50 [5]: 260 nM

CCC(C(=O)N[C@@H](CC(=O)O)C(=O)CNCN1CCOCC1)n1cc(C(C)(C)C)nc(NCc2nonc2C)c1=O (stereo not given in full)
IC50 [1]: > 10000 nM | IC50 [2]: 110 nM | IC50 [3]: 730 nM | IC50 [4]: 8620 nM | IC50 [5]: 540 nM

CCC(C(=O)N[C@@H](CC(=O)O)C(=O)c1ncc(-c2ccccc2)o1)n1ccnc(NCc2nonc2C)c1=O (stereo not given in full)
IC50 [1]: 9570 nM | IC50 [2]: 63 nM | IC50 [3]: 460 nM | IC50 [4]: 8390 nM | IC50 [5]: 750 nM

CCCCN(C)CNCC(=O)[C@H](CC(=O)O)NC(=O)C(CC)n1ccnc(NCc2nonc2C)c1=O (stereo not given in full)
IC50 [1]: > 10000 nM | IC50 [2]: 15 nM | IC50 [3]: 31 nM | IC50 [4]: 300 nM | IC50 [5]: 130 nM

CCC(C(=O)N[C@@H](CC(=O)O)C(=O)CCCc1ccccc1)n1cc(C(C)(C)C)nc(NCc2nonc2C)c1=O (stereo not given in full)
IC50 [1]: 5280 nM | IC50 [2]: 14 nM | IC50 [3]: 5130 nM | IC50 [4]: 1380 nM | IC50 [5]: 140 nM

CCCCCCN(C)CNCC(=O)[C@H](CC(=O)O)NC(=O)C(CC)n1cc(C(C)C)nc(NCc2nonc2C)c1=O (stereo not given in full)
IC50 [1]: 9040 nM | IC50 [2]: 13 nM | IC50 [3]: 63 nM | IC50 [4]: 4.8 nM | IC50 [5]: 65 nM

CCCCCN(C)CNCC(=O)[C@H](CC(=O)O)NC(=O)C(CC)n1cc(C(C)(C)C)nc(NCc2nonc2C)c1=O (stereo not given in full)
IC50 [1]: 5950 nM | IC50 [2]: 0.1 nM | IC50 [3]: 110 nM | IC50 [4]: 2.7 nM | IC50 [5]: 36 nM

CCC(C(=O)N[C@@H](CC(=O)O)C(=O)CNCN(C)C)n1ccnc(NCc2nonc2C)c1=O (stereo not given in full)
IC50 [1]: > 10000 nM | IC50 [2]: 42 nM | IC50 [3]: 890 nM | IC50 [4]: 2640 nM | IC50 [5]: 310 nM

CCC(C(=O)N[C@@H](CC(=O)O)C(=O)CN[C@@H](C)c1ccccc1)n1ccnc(NCc2nonc2C)c1=O (stereo not given in full)
IC50 [1]: 9260 nM | IC50 [2]: 14 nM | IC50 [3]: 64 nM | IC50 [4]: 1200 nM | IC50 [5]: 1040 nM

CCOCN(C)CNCC(=O)[C@H](CC(=O)O)NC(=O)C(CC)n1ccnc(NCc2nonc2C)c1=O (stereo not given in full)
IC50 [1]: > 10000 nM | IC50 [2]: 100 nM | IC50 [3]: 1750 nM | IC50 [4]: 3990 nM | IC50 [5]: 1010 nM

CCC(C(=O)N[C@@H](CC(=O)O)C(=O)CNCN(CC)CC)n1ccnc(NCc2nonc2C)c1=O (stereo not given in full)
IC50 [1]: > 10000 nM | IC50 [2]: 120 nM | IC50 [3]: 1140 nM | IC50 [4]: 3900 nM | IC50 [5]: 3240 nM

CCCCCN(C)CNCC(=O)[C@H](CC(=O)O)NC(=O)C(CC)n1ccnc(NCc2nonc2C)c1=O (stereo not given in full)
IC50 [1]: > 10000 nM | IC50 [2]: 13 nM | IC50 [3]: 48 nM | IC50 [4]: 300 nM | IC50 [5]: 110 nM

CCCN(C)CNCC(=O)[C@H](CC(=O)O)NC(=O)C(CC)n1ccnc(NCc2nonc2C)c1=O (stereo not given in full)
IC50 [1]: > 10000 nM | IC50 [2]: 17 nM | IC50 [3]: 620 nM | IC50 [4]: 1420 nM | IC50 [5]: 320 nM

CCC(C(=O)N[C@@H](CC(=O)O)C(=O)CSCc1ccccc1)n1ccnc(Nc2ccc3sc(C)nc3c2)c1=O (stereo not given in full)
IC50 [1]: 2730 nM | IC50 [2]: 88 nM | IC50 [3]: 220 nM | IC50 [4]: 37900 nM | IC50 [5]: 2420 nM
